Experiments:
Format in all cases: cell-based
GAVE10 [1] = molecular target: T1, GAVE10 (Homo sapiens, UniProt Q8TDU6); assay: FLIPR assay, PSC cells transfected with GAVE10 (calcium signaling); conditions: PSC cells alone vs PSC cells transfected with GAVE10; FIG. 1
T1 construct: expressed in transfected cells; host or cells: PSC cells
T1 sequence (Q8TDU6 1-330): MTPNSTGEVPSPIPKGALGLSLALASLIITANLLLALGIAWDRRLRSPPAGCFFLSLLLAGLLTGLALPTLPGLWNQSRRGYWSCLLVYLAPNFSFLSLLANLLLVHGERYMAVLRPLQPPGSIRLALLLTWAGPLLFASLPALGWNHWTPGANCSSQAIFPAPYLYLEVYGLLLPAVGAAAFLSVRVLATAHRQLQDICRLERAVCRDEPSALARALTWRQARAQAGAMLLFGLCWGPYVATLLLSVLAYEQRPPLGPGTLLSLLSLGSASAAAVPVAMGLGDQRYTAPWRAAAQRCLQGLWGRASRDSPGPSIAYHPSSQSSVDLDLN
Protocol: Compounds A, B, and C and lithocholic acid (LCA) were incubated, respectively, with PSC cells alone and PSC cells transfected with GAVE10, and the cells were then assayed in a FLIPR® assay.
To screen for agonists of human GAVE10, hGAVE10 was coupled artificially to a Gq mechanism. Activation of the Gq mechanism stimulates the release of Ca^2+ from sarcoplasmic reticulum vesicles within the cell. The Ca^2+ was released into the cytoplasm where it can be detected using Ca^2+ chelating dyes. A Fluorometric Imaging Plate Reader (i.e., a FLIPR® apparatus, Molecular Devices) was used to monitor any resulting changes in fluorescence. The activity of an agonist was reflected by any increase in fluorescence.
CHO-KI cells expressing hGAVE10 were pre-engineered to express an indiscriminate form of Gq protein (G016). To prepare such cells, Gα16-coupled CHO cells were obtained commercially (Molecular Devices LIVEWARE™ cells, Catalog No. RD-HGAI6) and the protocol in Example 2 followed to facilitate expression of hGAVE10 in those cells. The cells were maintained in log phase of growth at 37° C. and 5% CO2 in F12 Ham's media (Gibco/BRL, Catalog No. 11765-054) containing 10% fetal bovine serum, 100 IU/ml penicillin (Gibco/BRL, Catalog No. 15140-148), 100 μg/ml streptomycin (Catalog No. 15140-148, Gibco/BRL), 400 μg/ml genetecin (G418) (Gibco/BRL, Catalog No. 10131-035) and 200 μg/ml zeocin (Invitrogen, Catalog No. R250-05). […]
The CCD camera (Princeton Instruments) of the FLIPR® II (Molecular Devices) instrument was set at an f-stop of 2.0 and an exposure of 0.4 seconds. […] Changes in fluorescence were measured for 10 seconds prior to compound addition. After the addition of the compound, fluorescence was measured every second for the first minute followed by exposures taken every six seconds for a total experimental analysis time of three minutes. […] The maximum fluorescence changes for the first 80 scans were recorded as a measure of agonist activity and compared to the maximum fluorescence change induced by 10 μM ATP (Sigma A9062).

[2] = tested on: TNFα release in mouse macrophages; assay: TNFα release assay in mouse macrophages; conditions: FIG. 3
GAVE10 [3] = molecular target: T1, GAVE10; assay: cAMP assay, PSC cells transfected with GAVE10; conditions: PSC cells alone vs PSC cells transfected with GAVE10; FIG. 2
Protocol: Compounds A, B, and C and LCA were incubated, respectively, with PSC cells alone and PSC cells transfected with GAVE 10, and the cells were then assayed in a cAMP assay.

[4] = tested on: IL-6 production in mouse macrophages; assay: IL-6 production in mouse macrophages; conditions: male and female, effect more pronounced in male, FIG. 4

Row | Compound | activation of calcium-signaling pathways via GAVE10 (FLIPR) (GAVE10 [1]) | inhibition of TNFα release [2] | increase of intracellular cAMP via GAVE10 activation (GAVE10 [3]) | inhibition of IL-6 production [4]
1 | CC(CCC(=O)NCC[N+](C)(C)C)C1CCC2C3CCC4CC(O)CCC4(C)C3CC(O)C12C (stereo not drawn) [Compound A] | bind to GAVE10 to activate calcium-signaling pathways | inhibited TNFα release | activate GAVE10 to increase intracellular cAMP | –
2 | CC(CCC(=O)N1CCN(C)CC1)C1CCC2C3CCC4CC(O)CCC4(C)C3CC(O)C12C (stereo not drawn) [Compound B] | bind to GAVE10 to activate calcium-signaling pathways | inhibited TNFα release | activate GAVE10 to increase intracellular cAMP | –
3 | CC(CCC(=O)NCCN1CCOCC1)C1CCC2C3CCC4CC(O)CCC4(C)C3CC(O)C12C (stereo not drawn) [Compound C] | bind to GAVE10 to activate calcium-signaling pathways | – | activate GAVE10 to increase intracellular cAMP | –
4 | C[C@H](CCC(=O)O)[C@H]1CC[C@H]2[C@@H]3CC[C@@H]4C[C@H](O)CC[C@]4(C)[C@H]3C[C@H](O)[C@]12C [DCA] | – | – | – | inhibit IL-6 production

Reference: patent US20060111331A1, “Gave10 agonists for treating inflammation” (Aventis Pharmaceuticals Inc., priority 2004, published 2006)
